The values below come from PMC11678491, “Bis-Iridoid Glycosides and Triterpenoids from Kolkwitzia amabilis and Their Potential as Inhibitors of ACC1 and ACL” (Molecules, 2024).

One test deals with T1, ATP-citrate lyase (ACL) (Homo sapiens, UniProt P53396).
T1 sequence (P53396 1-1101): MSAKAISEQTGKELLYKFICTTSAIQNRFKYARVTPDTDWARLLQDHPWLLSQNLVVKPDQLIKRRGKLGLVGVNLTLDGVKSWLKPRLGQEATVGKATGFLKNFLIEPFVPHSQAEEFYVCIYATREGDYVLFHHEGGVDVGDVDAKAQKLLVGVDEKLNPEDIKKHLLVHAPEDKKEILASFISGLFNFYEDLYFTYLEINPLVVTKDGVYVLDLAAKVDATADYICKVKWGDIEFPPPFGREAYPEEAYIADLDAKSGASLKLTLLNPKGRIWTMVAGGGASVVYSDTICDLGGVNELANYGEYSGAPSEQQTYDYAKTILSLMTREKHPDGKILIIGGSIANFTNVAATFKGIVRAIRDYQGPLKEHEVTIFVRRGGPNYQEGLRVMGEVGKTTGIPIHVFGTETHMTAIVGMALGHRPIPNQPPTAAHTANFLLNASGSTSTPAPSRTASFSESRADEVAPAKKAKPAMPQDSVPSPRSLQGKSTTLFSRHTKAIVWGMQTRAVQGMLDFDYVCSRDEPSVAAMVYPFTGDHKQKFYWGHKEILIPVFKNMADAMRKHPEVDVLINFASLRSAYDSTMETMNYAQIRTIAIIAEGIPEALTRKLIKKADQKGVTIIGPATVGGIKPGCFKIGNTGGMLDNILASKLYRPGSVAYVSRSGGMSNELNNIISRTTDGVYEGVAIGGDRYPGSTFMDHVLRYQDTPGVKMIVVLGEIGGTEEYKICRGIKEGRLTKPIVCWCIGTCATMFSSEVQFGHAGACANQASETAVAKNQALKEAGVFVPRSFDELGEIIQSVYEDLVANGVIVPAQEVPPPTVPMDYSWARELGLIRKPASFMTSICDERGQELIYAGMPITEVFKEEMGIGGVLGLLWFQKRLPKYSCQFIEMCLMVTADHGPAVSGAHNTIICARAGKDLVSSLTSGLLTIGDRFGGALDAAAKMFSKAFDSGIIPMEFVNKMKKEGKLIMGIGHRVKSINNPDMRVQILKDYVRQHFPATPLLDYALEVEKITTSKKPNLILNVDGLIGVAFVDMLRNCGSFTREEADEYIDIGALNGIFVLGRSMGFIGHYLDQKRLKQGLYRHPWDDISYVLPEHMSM
Briefly: ACL inhibitory assay (ADP-Glo luminescence). It is filed as biochemical. As for the experimental part:
(§1) The ACC1 and ACL inhibitory activity assay were conducted using ADP-Glo^TM luminescence assay reagents (Promega Biotech Co., Ltd, Beijing, China), which measure ACC1 or ACL activity by quantifying the amount of ADP generated in the enzymatic reaction. […] Reactions were conducted in each well for 30 min at room temperature. Following this, 2.0 μL of ATP was added to each well, and the mixture was incubated for 1 h at room temperature. Negative control wells, which lacked the protein kinase, substrate, and ATP, were also included in the kinase assay. After the enzymatic reaction, 2.5 μL of ADP-Glo reagent was added to each well to terminate the kinase reaction and deplete any unconsumed ATP within 1 h at room temperature. Finally, 5.0 μL of kinase detection reagent was added to each well and incubated for 1 h to convert ADP to ATP. The luminescence signal was measured using a PerkinElmer EnVision reader.

For test [1], the target named is acetyl CoA carboxylase 1 (ACC1) (Homo sapiens, UniProt Q13085). Briefly: ACC1 inhibitory assay (ADP-Glo luminescence). It is filed as biochemical. The protocol:
as §1
Background: ADP-Glo turns the ADP formed in a reaction into a luminescent signal.

Setting [2] is: mean ± SEM of triplicated experiments.
The mark [3] stands for this setting: Figure 5, mean ± standard deviation (SD) (n = 3), read-out: IC50 (ACC1).
Where [4] appears, read: mean ± SEM of triplicated experiments, read-out: IC50 ACC1.
The mark [5] stands for this setting: Figure 5, mean ± standard deviation (SD) (n = 3).

As usually defined, the IC50 is the concentration that inhibits the measured activity by half.

Read-outs that look alike come from different tables or passages of the source.

With `COc1ccc(-c2ccccc2)cc1NS(=O)(=O)c1cc(Cl)cc(Cl)c1O` [BMS 303141, reference compound], the IC50 at ATP-citrate lyase (ACL) (setting [2]) worked out at 0.3 ± 0.1 µM.

With `C=C[C@H]1[C@H](O[C@@H]2O[C@H](CO)[C@@H](O)[C@H](O)[C@H]2O)OC=C(C(=O)O[C@H]2C[C@@H]3C(C(=O)OC)=CO[C@@H](O[C@@H]4O[C@H](CO)[C@@H](O)[C@H](OC(=O)/C=C/c5ccc(O)c(O)c5)[C@H]4O)[C@@H]3[C@@H]2C)[C@H]1CC(OC)OC` [Compound 2, Amabilioside B], the IC50 in test [1] (setting [3]) was determined as 9.64 ± 0.99 µM; in test [1] (setting [4]), 9.6 ± 1 µM.

`C=C[C@H]1[C@H](O[C@@H]2O[C@H](CO)[C@@H](O)[C@H](O)[C@H]2O)OC=C(C(=O)O[C@H]2C[C@@H]3C(C(=O)OC)=CO[C@@H](O)[C@@H]3[C@@H]2C)[C@H]1CC(OC)OC` [Compound 8, lonicejaposide C]: the IC50 in test [1] (setting [4]) was over 20 µM; at ATP-citrate lyase (ACL) (setting [5]), 3.63 ± 0.91 µM; on ATP-citrate lyase (ACL) (setting [2]), 3.6 ± 0.9 µM.

`CC(=O)O[C@H]1CC[C@]2(C)[C@H]3CC=C4[C@@H]5[C@@H](C)[C@H](C)CC[C@]5(C(=O)O)CC[C@@]4(C)[C@]3(C)CC[C@H]2C1(C)C` [Compound 17, 3β-acetyl-ursolic acid]: the IC50 turned out to be 10.3 ± 0.78 µM in test [1] (setting [3]), 10.3 ± 0.8 µM in test [1] (setting [4]) and 2 ± 0.5 µM at ATP-citrate lyase (ACL) (setting [2]).

In the case of `CC1(C)CC[C@]2(C(=O)O)CC[C@]3(C)C(=CC[C@@H]4[C@@]5(C)CC[C@H](O)[C@@](C)(COC(=O)/C=C/c6ccc(O)cc6)[C@@H]5CC[C@]43C)[C@@H]2C1` [Compound 31, (23E)-coumaroylhederagenin], the IC50 in test [1] (setting [4]) was over 20 µM; at ATP-citrate lyase (ACL) (setting [5]), 4.69 ± 1.3 µM; against ATP-citrate lyase (ACL) (setting [2]) it was 4.7 ± 1.3 µM.

The compound `COc1ccccc1[C@H](Cn1c(=O)n(C(C)(C)C(=O)O)c(=O)c2c(C)c(-c3ncco3)sc21)OC1CCOCC1` [ND 630, Firsocostat, reference compound] registered an IC50 in test [1] of 0.002 ± 0.0001 µM.
